Laboratory results taken from patent US10787571B2, “Oxidation color developable compound and oxidation color development reagent” (DOJINDO LABORATORIES, priority 2017, dated 2020).

Columns and labels:
[1] = Solution stability under photo irradiation (optical stability); format: physicochemical; details: 0.25 mM in 50 mM MES buffer (pH 6.5), under fluorescent lamp, temporal change in absorbance at 650 nm; FIG. 1
Experimental: Solution stability under photo irradiation was tested as follows. Each sample solution of Compound A, B, C and D according to the invention and DA-67 was prepared with 50 mM MES buffer (pH 6.5) in the concentration of 0.25 mM. Temporal change in the absorbance at 650 nm of each reagent prepared placed under fluorescent lamp was monitored.

[2] = Accelerated stability in the quantification of UA (uric acid); format: physicochemical; details: stored at 40° C., day 7, 14, 21 and 28; low concentration region of UA (2.1 mg/dL); FIG. 14
Experimental: At day 7, 14, 21 and 28, the reagents (wrapped with aluminum foil) stored in a chamber at 40° C. were taken out and brought back to room temperature. Also, the samples were taken out of a freezing chamber and naturally thawed at room temperature. They were mixed on a vortex mixer and used for the measurement. The absorbance was measurement similarly to the measurement of the linearity.

[3] = general statement on the conventional reagent; cited from earlier work

SMILES	optical stability [1]	order of accelerated stabilities [2]	solubility in water (stated drawback) [3]
CN(C)c1ccc2c(c1)Sc1cc(N(C)C)ccc1N2C(=O)NCCC(=O)O [Compound B]	DA-67 ≃Compound B according to the invention≈Compound C according to the invention<Compound A according to the invention<Compound D according to the invention	Compound A according to the invention>Compound D according to the invention≈DA-67>Compound B according to the invention>Compound C according to the invention	–
CN(C)c1ccc2c(c1)Sc1cc(N(C)C)ccc1N2C(=O)NCC(=O)NCC(=O)O [Compound D]	DA-67 ≃Compound B according to the invention≈Compound C according to the invention<Compound A according to the invention<Compound D according to the invention	Compound A according to the invention>Compound D according to the invention≈DA-67>Compound B according to the invention>Compound C according to the invention	–
CN(C)c1ccc2c(c1)Sc1cc(N(C)C)ccc1N2C(=O)NCC(=O)O [DA-67, reference compound]	DA-67 ≃Compound B according to the invention≈Compound C according to the invention<Compound A according to the invention<Compound D according to the invention	Compound A according to the invention>Compound D according to the invention≈DA-67>Compound B according to the invention>Compound C according to the invention	poor solubility in water
CN(C)c1ccc2c(c1)Sc1cc(N(C)C)ccc1N2C(=O)NCCS(=O)(=O)O [Compound A]	DA-67 ≃Compound B according to the invention≈Compound C according to the invention<Compound A according to the invention<Compound D according to the invention	Compound A according to the invention>Compound D according to the invention≈DA-67>Compound B according to the invention>Compound C according to the invention	–
